# Experimental data: BindingDB's records for doi:10.1016/j.bmcl.2008.07.045 (Korea Research Institute of Bioscience and Biotechnology, 2008)
# Target: not listed separately
# Test: Inhibition of sICAM1/LFA1 interaction-mediated human THP1 cell adhesion after 1 hr by ELISA
row,Compound,IC50 [µM]
1,O=C(/C=C/C=C/CC/C=C/c1ccc2c(c1)OCO2)N1CCCCC1 [Dehydropipernoline],17.6
2,CC(C)CNC(=O)/C=C/CCCCCC/C=C/c1ccc2c(c1)OCO2 [PIPERCHABAMIDE D],83.9
3,O=C(/C=C/CCCC/C=C/c1ccc2c(c1)OCO2)N1CCCCC1 [Pipernonaline],25.7
4,CC(C)CNC(=O)/C=C/CCCC/C=C/c1ccc2c(c1)OCO2 [RETROFRACTAMIDE C],> 151
5,CC(C)CNC(=O)/C=C/C=C/CCCCCC/C=C/c1ccc2c(c1)OCO2 [Guineensine],> 130

# Target: Intercellular adhesion molecule 1 (Homo sapiens, UniProt P05362)
# Test: Inhibition of sICAM1/LFA1 interaction-mediated human THP1 cell adhesion after 1 hr by ELISA
# Intercellular adhesion molecule 1, sequence (P05362 whole entry): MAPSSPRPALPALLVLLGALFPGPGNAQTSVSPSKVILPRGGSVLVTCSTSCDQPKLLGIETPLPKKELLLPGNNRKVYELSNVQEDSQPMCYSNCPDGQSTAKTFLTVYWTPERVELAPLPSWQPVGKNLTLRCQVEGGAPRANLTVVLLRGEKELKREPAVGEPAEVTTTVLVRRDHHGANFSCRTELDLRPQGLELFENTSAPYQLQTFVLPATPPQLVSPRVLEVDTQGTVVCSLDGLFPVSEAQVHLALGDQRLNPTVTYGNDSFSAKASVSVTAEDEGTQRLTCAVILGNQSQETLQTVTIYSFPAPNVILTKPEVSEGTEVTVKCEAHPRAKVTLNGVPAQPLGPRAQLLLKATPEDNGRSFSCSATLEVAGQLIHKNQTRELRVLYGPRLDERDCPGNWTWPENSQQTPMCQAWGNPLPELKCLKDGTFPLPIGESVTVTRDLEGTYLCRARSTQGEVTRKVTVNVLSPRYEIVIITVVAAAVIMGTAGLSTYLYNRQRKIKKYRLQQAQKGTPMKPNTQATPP
row,Compound,IC50 [µM]
1,O=C(CCCCCC/C=C/c1ccc2c(c1)OCO2)N1CCCCC1 [PIPERROLEIN B],37.8
2,O=C(/C=C/C=C\CC/C=C/c1ccc2c(c1)OCO2)N1CCCCC1,32.4
3,CCCCC/C=C/C=C/C(=O)NCC(C)C [CHEBI:69686],62.6
